Where two headings read alike, the source gives them in different places.
Tests used:
[1] = target: JAK2 domain2 (Homo sapiens (Human), UniProt O60674); assay: KiNativ assay; type: binding; conditions: H929 live cell
Summary of the method: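 Screening used intact H929 cells treated with each compound at 10 μM in duplicate; KiNativ labelling followed, and MS quantitation yielded IC50.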

[2] = target: STK3 (MST2) (Homo sapiens (Human), UniProt Q13188); assay: Z-lyte biochemical IC50 assay (Invitrogen); conditions: ATP concentration matched the Km
STK3 (MST2), sequence (Q13188 whole entry): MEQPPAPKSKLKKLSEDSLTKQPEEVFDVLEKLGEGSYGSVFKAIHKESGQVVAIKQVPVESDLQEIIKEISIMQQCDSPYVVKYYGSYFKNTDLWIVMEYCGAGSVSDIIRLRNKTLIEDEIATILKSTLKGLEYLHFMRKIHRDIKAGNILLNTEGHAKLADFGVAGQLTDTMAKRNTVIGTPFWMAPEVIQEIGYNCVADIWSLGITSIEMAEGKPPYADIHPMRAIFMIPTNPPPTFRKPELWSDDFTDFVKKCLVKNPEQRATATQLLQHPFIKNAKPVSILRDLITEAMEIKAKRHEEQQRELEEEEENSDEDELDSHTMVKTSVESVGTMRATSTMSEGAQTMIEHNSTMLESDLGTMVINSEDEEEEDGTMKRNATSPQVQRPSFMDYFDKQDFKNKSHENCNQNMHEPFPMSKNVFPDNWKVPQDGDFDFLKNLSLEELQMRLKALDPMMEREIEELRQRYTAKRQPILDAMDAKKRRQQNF

[3] = tested on: YAP1; assay: Western blotting; type: cell-based; conditions: for YAP1 levels: H929 and MM.1S cells
Description: (§1) MM.1S, KMS20 and H929 cells are counted, diluted and plated. Cells are then […] with DMSO or different concentration of a compound of the present application for 6 hrs, 24 hrs or 48 hrs. MM cells are then collected and centrifuged at RT and the pellets are re-suspended in lysis buffer. Cell lysates are subjected to sodium dodecyl sulfate-polyacrylamide gel electrophoresis SDS-PAGE, transferred to nitrocellulose membranes, and immunoblotted with different antibodies.
(§2) MM.1S, KMS20 and H929 cells were counted, diluted and plated in six-well plates to a final concentration of 500,000 cells/well. Cells were then […] with DMSO or different concentration of a compound of the present application for 6 hrs, 24 hrs or 48 hrs. MM cells were then collected and centrifuged for 5 min, 1300 rpm at RT. The pellets were re-suspended in lysis buffer Laemli 1× (Laemli 5×: SDS 10%, DTT 500 mM, Tris-HCl pH6.8 0.4M, BromoFenol Blue, Glycerol 50%). Cell lysates were subjected to sodium dodecyl sulfate-polyacrylamide gel electrophoresis SDS-PAGE, transferred to nitrocellulose membranes, and immunoblotted with different antibodies: YAP1 (#4912), p-YAP1 (S127) (#13008), LATS1 (#9153), p-LATS1 (Thr1079) (#8654), MOB1 (#3863), p-MOB1 (Thr12) (#8843), p-MST1/p-MST2 (Thr183/Thr180) (#3681), p21 (#2947), PARP (#9532), ERK, STAT, and GAPDH (#5174) from Cell Signaling, Beverly, Mass., United States; STK4 (ab57836) (from Abcam, Cambridge, Mass., United States); PUMA (sc-28226), BAX (sc-20067), from Santa Cruz, Dallas, Tex., United States; β-actin from Sigma-Aldrich (St. Louis, Mo., United States). All antibodies were diluted 1:500, except for β-actin antibody (1:50,000 dilution). In FIG. 8, H929 cells were treated with Compound I-9 or DMSO at 1 μM concentration for 24 hours. Lysates were then obtained and immunoblot was performed using antibodies against PARP, YAP1, PUMA, BAX. p21, and GAPDH.
In FIG. 10A, H929 and MM.1S cells were treated with Compound I-1 or DMSO at 1 μM and 10 μM concentrations for 16 hours. Lysates were then obtained and immunoblot was performed using antibodies against YAP1 and GAPDH.
In FIG. 12, H929 and MM. 1S cells were treated with Compound I-9, Compound I-12, or DMSO at 3 μM and 10 μM concentrations for 72 hours. Lysates were then obtained and immunoblot was performed using antibodies against YAP1 and Actin as loading control.
FIG. 13 show a Western blot of H929 and MM.1S cells treated with Compound I-13, Compound I-28, Compound I-9, KIN001-305, BMS536924, or DMSO at 1 μM concentration for 16 hours. Lysates were then obtained and immunoblot was performed using antibodies against YAP1, Actin, and pMOB1.

[4] = tested on: p-MOB1; assay: Western blotting; type: cell-based; conditions: MM.1S cells, 1 μM and 10 μM, 6 hours
Description: as §1, §2
In FIGS. 26A-26J, MM.1S cells were treated with Compound I-6, Compound I-31, Compound I-30, Compound I-22, Compound I-27, Compound I-1, Compound I-23, Compound I-13, Compound I-28, Compound I-9, or DMSO at 1 μM and 10 μM concentrations for 6 hours. Lysates were then obtained and immunoblot was performed using antibodies against MOB1 and p-MOB1. As shown from FIGS. 26A-26J, Compound I-22, Compound I-27, Compound I-1, Compound I-23, Compound I-13, Compound I-28, and Compound I-9 reduced PMOB1 levels at different concentrations.

[5] = range class, read-out: % inhibition

JAK2 domain2, sequence (O60674 whole entry, the tested form may be a part): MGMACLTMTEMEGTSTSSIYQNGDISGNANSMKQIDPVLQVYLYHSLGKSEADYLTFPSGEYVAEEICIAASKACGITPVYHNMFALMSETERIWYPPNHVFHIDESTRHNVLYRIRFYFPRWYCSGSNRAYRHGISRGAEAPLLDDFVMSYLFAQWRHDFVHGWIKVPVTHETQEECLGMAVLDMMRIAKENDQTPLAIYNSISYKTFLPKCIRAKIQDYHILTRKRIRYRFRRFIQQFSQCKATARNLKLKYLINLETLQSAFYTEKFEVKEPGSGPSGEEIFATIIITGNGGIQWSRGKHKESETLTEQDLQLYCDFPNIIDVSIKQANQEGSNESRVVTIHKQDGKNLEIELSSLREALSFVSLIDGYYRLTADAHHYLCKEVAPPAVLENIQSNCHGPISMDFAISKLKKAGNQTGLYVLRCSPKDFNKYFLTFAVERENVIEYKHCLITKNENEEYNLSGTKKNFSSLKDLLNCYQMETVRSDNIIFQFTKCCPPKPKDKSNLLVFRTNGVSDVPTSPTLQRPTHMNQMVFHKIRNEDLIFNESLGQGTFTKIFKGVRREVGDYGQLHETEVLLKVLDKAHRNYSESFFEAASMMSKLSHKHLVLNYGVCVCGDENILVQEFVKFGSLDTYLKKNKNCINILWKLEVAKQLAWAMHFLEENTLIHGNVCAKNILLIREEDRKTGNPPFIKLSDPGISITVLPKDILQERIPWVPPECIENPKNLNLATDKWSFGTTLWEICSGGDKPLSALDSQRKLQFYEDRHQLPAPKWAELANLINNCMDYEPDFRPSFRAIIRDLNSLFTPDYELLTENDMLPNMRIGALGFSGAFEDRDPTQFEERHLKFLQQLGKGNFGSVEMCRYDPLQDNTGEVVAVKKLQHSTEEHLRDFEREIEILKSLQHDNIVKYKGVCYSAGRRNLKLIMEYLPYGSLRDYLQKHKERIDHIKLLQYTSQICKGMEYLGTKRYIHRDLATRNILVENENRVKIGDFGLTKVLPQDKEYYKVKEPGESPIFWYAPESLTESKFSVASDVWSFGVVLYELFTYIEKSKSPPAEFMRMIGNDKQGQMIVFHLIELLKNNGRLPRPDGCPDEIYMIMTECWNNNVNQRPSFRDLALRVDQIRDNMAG

| Compound | inhibition at 10 µM [1, 5] | inhibition at 10 µM ([1]; read-out: inhibition (10 μM)) | IC50 [2] | protein levels of YAP1 ([3]; H929 cells and MM.1S cells, 1 μM and 10 μM, 16 hours) | PMOB1 levels [4] | YAP1 levels ([3]; 1 μM, 16 hours) | YAP1 levels ([3]; 3 μM and 10 μM, 72 hours) | protein levels of YAP1 ([3]; H929 cells, 1 μM, 24 hours) |
| --- | --- | --- | --- | --- | --- | --- | --- | --- |
| COc1cc(NS(=O)(=O)C2CC2)ccc1-c1cnc(N)c(-c2ccc3c(c2)CCNC3=O)c1 [Compound I-50, N-(4-(6-amino-5-(1-oxo-1,2,3,4-tetrahydroisoquinolin-6-yl)pyridin-3-yl)-3-methoxyphenyl) cyclopropanesulfonamide] | 0% | -71.2% | – | – | – | – | – | – |
| Nc1ncc(-c2cc([N+](=O)[O-])ccc2F)cc1-c1ccc2c(c1)CCNC2=O [Compound I-1, 6-(2-amino-5-(2-fluoro-5-nitrophenyl)pyridin-3-yl)-3,4-dihydroisoquinolin-1(2H)-one] | – | – | 40 to 200 nM | upregulation | reduced | – | – | – |
| Nc1ncc(-c2cccc([N+](=O)[O-])c2F)cc1-c1ccc2c(c1)CCNC2=O [Compound I-9, 6-(2-amino-5-(2-fluoro-3-nitrophenyl)pyridin-3-yl)-3,4-dihydroisoquinolin-1(2H)-one] | – | – | < 40 nM | – | reduced | increase | low | upregulation |
| Nc1ncc(-c2cccc3ncsc23)cc1-c1ccc2c(c1)CCNC2=O [Compound I-13, 6-(2-amino-5-(benzo[d]thiazol-7-yl)pyridin-3-yl)-3,4-dihydroisoquinolin-1(2H)-one] | – | – | 40 to 200 nM | – | reduced | increase | – | – |
| Nc1ncc(-c2ccc(NS(=O)(=O)C3CC3)cc2OC2CCCCC2)cc1-c1ccc2c(c1)CCNC2=O [Compound I-65, N-(4-(6-amino-5-(1-oxo-1,2,3,4-tetrahydroisoquinolin-6-yl)pyridin-3-yl)-3-(cyclohexyloxy)phenyl) cyclopropanesulfonamide] | 0% | 18.8% | – | – | – | – | – | – |
| CN(C1CC1)S(=O)(=O)c1ccc(-c2cnc(N)c(-c3ccc4c(c3)CCNC4=O)c2)c(F)c1 [Compound I-28, 4-(6-amino-5-(1-oxo-1,2,3,4-tetrahydroisoquinolin-6-yl)pyridin-3-yl)-N-cyclopropyl-3-fluoro-N-methylbenzenesulfonamide] | – | – | < 40 nM | – | reduced | increase | – | – |
